14 compounds from EPA's ToxValDB 9.5 can be followed below.

Some results are limits rather than exact numbers.

The test system of data set [1] is Rattus norvegicus. Conditions: for NEL: Blood: Hematology.
Data set [2] concerns Rattus norvegicus. Conditions: oral, gavage.
Setting [3] is: reproduction developmental, oral, gavage, F, Wistar, generation: F1, F1: body weight + F1: kidney: absolute kidney weight + F1: kidney: relative kidney weight + F1: liver: absolute liver weight + F1: liver: ….
[4] abbreviates: reproduction developmental, oral, gavage, F, Wistar, generation: P0, P0: body weight + P0: developmental toxicity.
[5] abbreviates: reproduction developmental, oral, gavage, M, Wistar, generation: F1, F1: body weight + F1: paternal toxicity.
The mark [6] stands for this setting: reproduction developmental, oral, gavage, M, Wistar, generation: P0, P0: body weight + P0: developmental toxicity.
[7] abbreviates: short-term, duration: 28 days, M, Sprague-Dawley, Clinical Observation: Salivation + Urinalysis: Volume increase + Blood Chemistry: Ch E increase, T-CHO increase + Absolute Organ Weight: ….
The mark [8] stands for this setting: subchronic, M, Sprague-Dawley, Deaths + Clinical Observation: Diarrhea SalivationSoft feces Decreased locomotor activity BradypneaIncomplete eyelid opening AnorexiaSoiled ….
[9] abbreviates: short-term, duration: 28 days, F, Sprague-Dawley, Water Consumption: increase + Urinalysis: Volume increase, Osmolarity decrease, Bil increase + Hematology: RBC decrease300 Hgb decrease300 ….
Where [10] appears, read: short-term, duration: 28 days, M, Sprague-Dawley, Water Consumption: increase + Urinalysis: Volume increase, Osmolarity decrease, Bil increase + Hematology: RBC decrease300 Hgb decrease300 ….
[11] abbreviates: short-term, duration: 28 days, F, Sprague-Dawley, Deaths + Clinical Observation: Locomotor activity decrease, Salivation + Body Weight Changes: decrease, Gain decrease + Food Consumption: ….
Where [12] appears, read: short-term, duration: 28 days, M, Sprague-Dawley, Deaths + Clinical Observation: Locomotor activity decrease, Salivation + Body Weight Changes: decrease, Gain decrease + Food Consumption: ….

Turning to `CC(C)(c1ccc(OP(=O)(Oc2ccccc2)Oc2ccccc2)cc1)c1ccc(OP(=O)(Oc2ccccc2)Oc2ccccc2)cc1` [2,2-Bis[4-[bis(phenoxy)phosphoryloxy]phenyl]propane], the NOEL came to 2000 mg/kg-day with Rattus norvegicus [1] (acute, duration: 14 days, oral, gavage, F, Crl:CD(SD), body weight gain + toxicity); 1000 mg/kg-day in the data set on Rattus norvegicus [1] (developmental, oral, Sprague-Dawley, generation: F1, F1: embryotoxicity); 1000 mg/kg-day in the data set with Rattus norvegicus [1] (developmental, oral, gavage, Crl:CD(SD), generation: F1, F1: embryotoxicity); 1000 mg/kg-day in the data set with Rattus norvegicus [1] (reproduction developmental, oral, F, Sprague-Dawley, generation: P0, P0: maternal toxicity); 1000 mg/kg-day in the data set on Rattus norvegicus [1] (reproduction developmental, oral, gavage, Crl:CD(SD), generation: F1, F1: fetotoxicity); 1000 mg/kg-day in the data set with Rattus norvegicus [1] (reproduction developmental, oral, gavage, Crl:CD(SD), generation: F1, F1: toxicity). For the same compound, the NOEL in the data set on Rattus norvegicus [1] (reproduction developmental, oral, gavage, F, Crl:CD(SD), generation: P0, P0: body weight + P0: maternal toxicity) worked out at 1000 mg/kg-day; in the data set on Rattus norvegicus [1] (reproduction developmental, oral, gavage, F, Crl:CD(SD), generation: P0, P0: body weight gain + P0: maternal toxicity + P0: uterus: gravid uterine weight), 500 mg/kg-day; in the data set with Rattus norvegicus [1] (reproduction developmental, oral, gavage, F, Crl:CD(SD), generation: P0, P0: body weight gain + P0: ovary: ovary weight + P0: toxicity), 100 mg/kg-day; in the data set on Rattus norvegicus [1] (reproduction developmental, oral, gavage, F, Crl:CD(SD), generation: P0, P0: body weight gain + P0: toxicity), 1000 mg/kg-day; in the data set with Rattus norvegicus [1] (reproduction developmental, oral, gavage, F, Crl:CD(SD), generation: P0, P0: body weight gain + P0: uterus: Gravid uterus weight) it was 1000 mg/kg-day; with Rattus norvegicus [1] (reproduction developmental, oral, gavage, F, Crl:CD(SD), generation: P0, P0: toxicity) it was 1000 mg/kg-day. For the same compound, the NOEL is 100 mg/kg-day in the data set with Rattus norvegicus [1] (setting [3]); 1000 mg/kg-day in the data set on Rattus norvegicus [1] (reproduction developmental, oral, gavage, F, Wistar, generation: F1, F1: toxicity); 100 mg/kg-day with Rattus norvegicus [1] (setting [4]); 1000 mg/kg-day in the data set on Rattus norvegicus [1] (reproduction developmental, oral, gavage, F, Wistar, generation: P0, P0: maternal toxicity); 1000 mg/kg-day in the data set with Rattus norvegicus [1] (reproduction developmental, oral, gavage, F, Wistar, generation: P0, P0: toxicity); 1000 mg/kg-day with Rattus norvegicus [1] (reproduction developmental, oral, gavage, M/F, Crl:CD(SD), generation: F1, F1: body weight + F1: toxicity). The NOEL with Rattus norvegicus [1] (reproduction developmental, oral, gavage, M, Crl:CD(SD), generation: P0, P0: body weight gain + P0: kidney: kidney: absolute weight + P0: spleen: spleen weight + P0: toxicity) was determined as 1000 mg/kg-day; in the data set on Rattus norvegicus [1] (setting [5]), 100 mg/kg-day; with Rattus norvegicus [1] (reproduction developmental, oral, gavage, M, Wistar, generation: F1, F1: toxicity) it was 1000 mg/kg-day; in the data set on Rattus norvegicus [1] (setting [6]) it was 100 mg/kg-day; in the data set on Rattus norvegicus [1] (reproduction developmental, oral, gavage, M, Wistar, generation: P0, P0: toxicity), 1000 mg/kg-day; in the data set with Rattus norvegicus [1] (reproduction developmental, oral, gavage, Wistar, generation: F1, F1: developmental toxicity), 1000 mg/kg-day. Also, the NOEL with Rattus norvegicus [1] (short-term, duration: 28 days, oral, diet, M, Sprague-Dawley, toxicity) was determined as 1860 mg/kg-day; in the data set on Rattus norvegicus [1] (short-term, duration: 28 days, oral, gavage, F, Sprague-Dawley, body weight + toxicity), 1000 mg/kg-day; with Rattus norvegicus [1] (short-term, duration: 28 days, oral, gavage, F, Sprague-Dawley, liver: absolute liver weight + ovary: ovary weight + toxicity) it was 1000 mg/kg-day; in the data set with Rattus norvegicus [1] (short-term, duration: 28 days, oral, gavage, F, Sprague-Dawley, toxicity) it was 1000 mg/kg-day; in the data set with Rattus norvegicus [1] (short-term, duration: 28 days, oral, gavage, M, Sprague-Dawley, body weight + toxicity), 1000 mg/kg-day; in the data set with Rattus norvegicus [1] (short-term, duration: 28 days, oral, gavage, M, Sprague-Dawley, toxicity) it was 1000 mg/kg-day. The NOEL is 1000 mg/kg-day in the data set with Rattus norvegicus [1] (short-term, oral, gavage, F, Sprague-Dawley, toxicity); 1000 mg/kg-day in the data set with Rattus norvegicus [1] (short-term, oral, gavage, M, Sprague-Dawley, toxicity); 1000 mg/kg-day with Rattus norvegicus [1] (subchronic, duration: 90 days, oral, gavage, F, Crj:CD, body weight + toxicity); 1000 mg/kg-day in the data set on Rattus norvegicus [1] (subchronic, duration: 90 days, oral, gavage, F, Sprague-Dawley, body weight + toxicity); 1000 mg/kg-day in the data set with Rattus norvegicus [1] (subchronic, duration: 90 days, oral, gavage, M, Crj:CD, body weight + toxicity); 1000 mg/kg-day with Rattus norvegicus [1] (subchronic, duration: 90 days, oral, gavage, M, Sprague-Dawley, body weight + toxicity). For the same compound, the NOEL worked out at 1000 mg/kg-day with Rattus norvegicus [1] (subchronic, oral, gavage, F, Sprague-Dawley, toxicity) and 1000 mg/kg-day in the data set on Rattus norvegicus [1] (subchronic, oral, gavage, M, Sprague-Dawley, toxicity). The LOEL in the data set with Rattus norvegicus [1] (setting [3]), in the data set on Rattus norvegicus [1] (setting [4]), in the data set with Rattus norvegicus [1] (setting [5]) and in the data set on Rattus norvegicus [1] (setting [6]) was 200 mg/kg-day each time.

In the case of `FC(F)(F)N1C(F)(F)C(F)(F)OC(F)(F)C1(F)F` [Perfluoro(N-methylmorpholine)], the NEL came to 607000 mg/m3 with Rattus norvegicus [1] (subchronic, duration: 13 weeks, inhalation, M/F, Sprague-Dawley, Unspecified + Eye: Ophthalmology, Unspecified + Multi-organ: Clinical Chemistry, Unspecified + Multi-organ: …) and 2000 mg/kg-day with Rattus norvegicus [1] (subchronic, duration: 30 days, oral, gavage, M/F, Crl:CD(SD) BR, Unspecified + Blood: Red Cell Morphology + Multi-organ: Clinical Chemistry, Unspecified + Multi-organ: Histopathology, …).

As to `OCC#CCO` [2-Butyne-1,4-diol], the NOEL with Rattus norvegicus [2] (short-term, duration: 28 days, M/F, Wistar, Deaths + Body Weight Changes: decrease + Food Consumption: decrease + Hematology: RET increase, WBC increase, Neut increase, Lymph increase…) amounted to 1 mg/kg-day.

In the case of `Nc1ccccc1C(=O)O` [Anthranilic acid], in the data set on Rattus norvegicus [2] (setting [7]), the NOAEL (usually the highest dose or exposure tested at which no adverse effect was seen) stood at 200 mg/kg-day and the NOEL is < 200 mg/kg-day.

As to `CO[Si](OC)(OC)c1ccccc1` [Trimethoxyphenylsilane], in the data set with Rattus norvegicus [2] (short-term, duration: 28 days, M, Han Wistar, Body Weight Changes: decrease + Food Consumption: decrease + Blood Chemistry: BUN increase, BA increase, T-Cho increase + Absolute Organ …), the NOAEL is < 100 mg/kg-day.

Take `Nc1c(S(=O)(=O)O)cc(Br)c2c1C(=O)c1ccccc1C2=O`: in the data set on Rattus norvegicus [2] (short-term, duration: 28 days, M/F, Deaths + Clinical Observation: Polyuria + Body Weight Changes: Body weight gain decrease + Water Consumption: increase + Urinalysis: Urine …), the NOEL turned out to be 50 mg/kg-day.

On to `ClCBr` [Bromochloromethane], for which the NOEL with Rattus norvegicus [2] (subchronic, duration: 42 days, M, CD(SD), Absolute Organ Weight: Liver increase + Relative Organ Weight: Liver increase + Necropsy: Stomach-Dark red focus, glandular stomach + …) worked out at 30 mg/kg-day.

Regarding `CCc1cc(Cc2cc(CC)cc(C(C)(C)C)c2O)c(O)c(C(C)(C)C)c1` [2,2'-Methylenebis(ethyl-6-tert-butylphenol)], in the data set on Rattus norvegicus [2] (setting [8]), the NOAEL turned out to be 30 mg/kg-day and the NOEL is < 30 mg/kg-day.

Turning to `Nc1ccccc1-c1ccccc1` [2-Biphenylamine], in the data set on Rattus norvegicus [2] (setting [9]), the LOEL was determined as 30 mg/kg-day and the NOEL was < 30 mg/kg-day. In the data set with Rattus norvegicus [2] (setting [10]), the LOEL turned out to be 100 mg/kg-day and the NOEL came out at 30 mg/kg-day.

With `C=C[Si](OCCOC)(OCCOC)OCCOC` [Tris(2-methoxyethoxy)vinylsilane], the NOAEL in the data set with Rattus norvegicus [2] (short-term, duration: 28 days, M/F, CD(SD), Body Weight Changes: decrease + Food Consumption: decrease + Hematology: RBC decrease, HGB decrease, HCT decrease, MCHC decrease, RET …) was determined as 25 mg/kg-day.

On to `NC(=O)c1cccnc1` [Niacinamide], for which the no observed adverse effect level (NOAEL) in the data set on Rattus norvegicus [2] (short-term, duration: 28 days, M/F, Wistar, Body Weight Changes: decrease + Food Consumption: decrease + Blood Chemistry: AST increase, ALT increase, T-Cho increase, ALP increase, BUN …) worked out at 215 mg/kg-day.

On to `O=[N+]([O-])c1ccc(Cl)c([N+](=O)[O-])c1` [1-Chloro-2,4-dinitrobenzene], for which the NOEL with Rattus norvegicus [2] (subchronic, M, Sprague-Dawley, Relative Organ Weight: Thymus decrease + Histopathology: Stomach/forestomach- Squamous cell hyperplasia Stomach/forestomach -inflammatory …) is 1 mg/kg-day.

Consider `CCCCC/C=C/C=C/C=O` [(E,E)-2,4-Decadienal], for which the NOAEL in the data set on Rattus norvegicus [2] (chronic, duration: 14 weeks, M/F, Fischer 344, Clinical Observation: Lethargy + Body Weight Changes: Mean body weight decrease, Body weight gain decrease + Hematology: WBC decrease, SEG …) came to 100 mg/kg-day.

Take `NS(=O)(=O)c1ccccc1` [Benzenesulfonamide]: in the data set on Rattus norvegicus [2] (setting [11]), the LOAEL (as a rule, the lowest dose or exposure tested at which an adverse effect was seen) came out at 30 mg/kg-day; the LOEL was 30 mg/kg-day; the no observed adverse effect level (NOAEL) came to 6 mg/kg-day; the NOEL is 6 mg/kg-day. In the data set with Rattus norvegicus [2] (setting [12]), the LOAEL stood at 30 mg/kg-day, the LOEL was found to be 30 mg/kg-day, the NOAEL came out at 6 mg/kg-day and the NOEL came to 6 mg/kg-day.
